Here are results for 1 molecule from patent US20040106135A1, “Assay for PPAR ligand dependent gene modulation” (priority 2002, published 2004).

The test system of test [1] is ADRP mRNA in HK-2 cells (endogenous PPARα). Briefly: ADRP mRNA induction in HK-2 cells (real-time RT-PCR). The note with it: 100 nM GW9578. The test is classed as cell-based, human. The method, then: Values were normalized to 18S rRNA levels.
Cell culture: The following cell lines were obtained from American Type Culture Collection (ATCC) and cultured in the recommended medium for each cell type: HepG2, HK-2, Caki-1, LNCaP (CloneFGC), SW872, and ACHN. PPARα compounds were prepared to a 500× stock in DMSO; corresponding control cells received an equal volume of vehicle (0.2% v/v).
(§1) Real-time PCR: Fluorescence-based real-time PCR was performed essentially as described (Abbaszade et al., (1999) J. Biol. Chem. 274:23443-23450). […] Taqman-based real-time PCR expression profiling was performed using 25 ng of each cDNA according to the manufacturer's (PE Biosystems) instructions with fluorescence being monitored in real-time with an ABI Prism 7700 (PE Biosystems). Relative expression levels were determined essentially as described (Gibson et al., (1996) Genome Res. 6:995-1001) using standard curves for each transcript. Relative abundance was then determined from these standard curves, subtracting mRNA levels obtained from negative control reactions performed in the absence of reverse transcriptase, and normalized to 18S rRNA levels. […]
On the technique in general: Real-time PCR tracks product formation cycle by cycle.

Test [2] relates to hamster PDK-4 mRNA in kidney. The experiment in a line: PDK-4 mRNA induction in kidney of fat-fed hamsters. The test is classed as in vivo. Particulars: single dose (GW9578 3 mg/kg, fenofibrate 100 mg/kg, gemfibrozil 500 mg/kg), 16 hours. The method, then: FIG. 4B is a bar graphs depicting the induction of PDK-4 mRNA in hamster kidney by PPARα ligands. […] After 16 hours, the tissues were harvested, total RNA isolated and levels of hamster PDK-4 mRNA were detected by RT-PCR. The values are normalized to 18S rRNA levels. The mean and SEM of three individual animals are shown.
PDK-4 plays a critical role in regulating glucose metabolism by phosphorylating and inactivating the pyruvate dehydrogenase complex in response to increased fatty acid oxidation. […] To investigate the response of PDK-4 to fibrate treatment in vivo, in another aspect of the present invention the fat-fed hamster model was employed, which closely mimics the serum lipid profiles of humans than other rodent models (Sullivan et al., (1993) Lab. Anim. Sci. 43:575-578). […] These doses were previously shown to yield maximal effects on blood triglycerides in hamster. […] In hamster kidney, the basal levels of PDK-4 mRNA were approximately 10-fold higher than in the liver (FIG. 4B). […] Fibrates are effective treatments for lowering serum triglyceride levels. To verify that the doses used in this study were efficacious, blood triglyceride levels were monitored over a 48 hour time course.
as §1

For the molecule `CCCCCCCN(CCc1ccc(SC(C)(C)C(=O)O)cc1)C(=O)Nc1ccc(F)cc1F` [GW9578, ureido-thioisobutyric acid], the “Time to near maximal increase of ADRP mRNA” value in test [1] was not above 2 h. In addition, the “Induction of PDK-4 mRNA in kidney” value in test [2] is listed as 7 fold.
